Data taken from patent US6737383B1, “Herbicidal oxadiazolidines” (priority 1999, dated 2004).

What was measured:
purple nutsedge = assay: Test B pre/postemergence purple nutsedge; assay type: in vivo, Cyperus rotundus; settings: for Nutsedge plant response rating: scale of 0 to 10 where 0 is no effect and 10 is complete control
Outline: (§1)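 Herbicidal effect was estimated by eye on a ten-point control scale after plants spent twelve to sixteen days in a greenhouse following soil or foliar treatment. Foliar sprays targeted plants at one to four leaves; all doses were formulated in a non-phytotoxic solvent with surfactant.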

rape = assay: Test B pre/postemergence rape; assay type: in vivo, Brassica napus; settings: for Rape plant response rating: scale of 0 to 10 where 0 is no effect and 10 is complete control
Outline: as §1

duck salad = assay: Test B flood test duck salad; assay type: in vivo, Heteranthera limosa
Outline: (§2)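 Each value is a visual injury score relative to controls, with 10 meaning complete control and 0 no effect. Evaluation took place twelve to sixteen days after the 2-leaf-stage plants were treated and kept in the greenhouse.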

corn = assay: Test B pre/postemergence corn; assay type: in vivo, Zea mays; settings: for Corn plant response rating: scale of 0 to 10 where 0 is no effect and 10 is complete control
Outline: as §1

surinam grass = assay: Test B pre/postemergence surinam grass; assay type: in vivo, Brachiaria decumbens
Outline: as §1

morningglory = assay: Test B pre/postemergence morningglory; assay type: in vivo, Ipomoea hederacea; settings: for Morningglory plant response rating: scale of 0 to 10 where 0 is no effect and 10 is complete control
Outline: as §1

cocklebur = assay: Test B pre/postemergence cocklebur; assay type: in vivo, Xanthium strumarium; settings: for Cocklebur plant response rating: scale of 0 to 10 where 0 is no effect and 10 is complete control
Outline: as §1

bamyardgrass = assay: Test B flood test barnyardgrass; assay type: in vivo, Echinochloa crus-galli
Outline: as §2

pigweed = assay: Test B pre/postemergence pigweed; assay type: in vivo, Amaranthus retroflexus; settings: for Redroot pigweed plant response rating: scale of 0 to 10 where 0 is no effect and 10 is complete control
Outline: as §1

rice = assay: Test B flood test rice; assay type: in vivo, Oryza sativa
Outline: as §2

soybean = assay: Test B pre/postemergence soybean; assay type: in vivo, Glycine max; settings: for Soybean plant response rating: scale of 0 to 10 where 0 is no effect and 10 is complete control
Outline: as §1

wild oat = assay: Test B pre/postemergence wild oat; assay type: in vivo, Avena fatua; settings: for Wild oats plant response rating: scale of 0 to 10 where 0 is no effect and 10 is complete control
Outline: as §1

sugar beet = assay: Test B pre/postemergence sugar beet; assay type: in vivo, Beta vulgaris; settings: for Sugarbeets plant response rating: scale of 0 to 10 where 0 is no effect and 10 is complete control
Outline: as §1

smallflower flatsedge = assay: Test B flood test smallflower flatsedge; assay type: in vivo, Cyperus difformis
Outline: as §2

crabgrass = assay: Test B pre/postemergence crabgrass; assay type: in vivo, Digitaria sanguinalis; settings: for Crabgrass plant response rating: scale of 0 to 10 where 0 is no effect and 10 is complete control
Outline: as §1

giant foxtail = assay: Test B pre/postemergence giant foxtail; assay type: in vivo, Setaria faberii; settings: for Giant foxtail plant response rating: scale of 0 to 10 where 0 is no effect and 10 is complete control
Outline: as §1

[1] = Postemergence, Rate 125 g/ha, scale 0 to 10, 0 is no effect, 10 is complete control
[2] = Preemergence, Rate 62 g/ha, scale 0 to 10 (0 no effect, 10 complete control)
[3] = Rate 500 g/ha, Postemergence, scale 0 to 10, 0 no effect, 10 complete control
[4] = Postemergence (flood test), Rate 125 g/ha, scale 0 to 10, 0 is no effect, 10 is complete control
[5] = Rate 62 g/ha, Postemergence (flood test species), scale of 0 to 10 where 0 is no effect and 10 is complete control
[6] = Rate 62 g/ha, flood test species, Pre-emergence, visual evaluation after twelve to sixteen days
[7] = Rate 125 g/ha, Pre-emergence, flood test species, scale 0 to 10 where 0 is no effect and 10 is complete control
[8] = Rate 250 g/ha, Pre-emergence, flood-test species, scale 0 to 10, 0 is no effect, 10 is complete control
[9] = Rate 500 g/ha, Pre-emergence, flood test species, scale 0 to 10 (0 no effect, 10 complete control)

CCC(CC)n1c(=O)on(C(=O)N(c2ccc(F)cc2)C(C)C)c1=O [Compound 358]
Plant response rating, Nutsedge (purple nutsedge; [1]): 0
Plant response rating, Nutsedge (purple nutsedge; [2]): 0
Nutsedge plant response rating (0 to 10 scale) (purple nutsedge; Preemergence, Rate 125 g/ha): 0
Nutsedge plant response rating (purple nutsedge; Preemergence, Rate 250 g/ha): 0
Nutsedge plant response rating (purple nutsedge; Preemergence, Rate 500 g/ha): 0
Nutsedge plant response rating (purple nutsedge; Rate 62 g/ha, Postemergence): 0
Plant response rating, Nutsedge (purple nutsedge; [3]): 0
Plant response rating, Rape (rape; [1]): 1
Plant response rating, Rape (rape; [2]): 0
Rape plant response rating (0 to 10 scale) (rape; Preemergence, Rate 125 g/ha): 0
Rape plant response rating (rape; Preemergence, Rate 250 g/ha): 4
Rape plant response rating (rape; Preemergence, Rate 500 g/ha): 4
Rape plant response rating (rape; Rate 62 g/ha, Postemergence): 1
Plant response rating, Rape (rape; [3]): 4
Plant response rating, Ducksalad (duck salad; [4]): 2
Ducksalad plant response rating (duck salad; [5]): 0
Plant response rating, Ducksalad (0 to 10 scale, 0 is no effect, 10 is complete control) (duck salad; [6]): 0
Ducksalad plant response rating (duck salad; [7]): 0
Ducksalad plant response rating (duck salad; [8]): 0
Ducksalad plant response rating (duck salad; [9]): 2
Plant response rating, Corn (corn; [1]): 0
Plant response rating, Corn (corn; [2]): 0
Corn plant response rating (0 to 10 scale) (corn; Preemergence, Rate 125 g/ha): 0
Corn plant response rating (corn; Preemergence, Rate 250 g/ha): 2
Corn plant response rating (corn; Preemergence, Rate 500 g/ha): 6
Corn plant response rating (corn; Rate 62 g/ha, Postemergence): 0
Plant response rating, Corn (corn; [3]): 0
Plant response rating, B. signalgrass (surinam grass; [1]): 0
Plant response rating, B. signalgrass (surinam grass; [2]): 1
B. signalgrass plant response rating (0 to 10 scale, 0 is no effect, 10 is complete control) (surinam grass; Preemergence, Rate 125 g/ha): 3
B. signalgrass plant response rating (surinam grass; Preemergence, Rate 250 g/ha, scale of 0 to 10 where 0 is no effect and 10 is complete control): 5
B. signalgrass plant response rating (surinam grass; Preemergence, Rate 500 g/ha, scale of 0 to 10 where 0 is no effect and 10 is complete control): 7
B. signalgrass plant response rating (surinam grass; Rate 62 g/ha, Postemergence, scale of 0 to 10 where 0 is no effect and 10 is complete control): 0
Plant response rating, B. signalgrass (surinam grass; Rate 250 g/ha, Postemergence, scale of 0 to 10 where 0 is no effect and 10 is complete control): 1
Plant response rating, B. signalgrass (surinam grass; [3]): 2
Plant response rating, Morningglory (morningglory; [1]): 5
Plant response rating, Morningglory (morningglory; [2]): 0
Morningglory plant response rating (0 to 10 scale) (morningglory; Preemergence, Rate 125 g/ha): 0
Morningglory plant response rating (morningglory; Preemergence, Rate 250 g/ha): 3
Morningglory plant response rating (morningglory; Preemergence, Rate 500 g/ha): 5
Morningglory plant response rating (morningglory; Rate 62 g/ha, Postemergence): 3
Plant response rating, Morningglory (morningglory; [3]): 7
Plant response rating, Cocklebur (cocklebur; [1]): 0
Plant response rating, Cocklebur (cocklebur; [2]): 0
Cocklebur plant response rating (0 to 10 scale) (cocklebur; Preemergence, Rate 125 g/ha): 0
Cocklebur plant response rating (cocklebur; Preemergence, Rate 250 g/ha): 0
Cocklebur plant response rating (cocklebur; Preemergence, Rate 500 g/ha): 0
Cocklebur plant response rating (cocklebur; Rate 62 g/ha, Postemergence): 0
Plant response rating, Cocklebur (cocklebur; [3]): 0
Plant response rating, Barnyardgrass (bamyardgrass; [4]): 2
Barnyardgrass plant response rating (bamyardgrass; [5]): 2
Plant response rating, Barnyardgrass (0 to 10 scale, 0 is no effect, 10 is complete control) (bamyardgrass; [6]): 0
Barnyardgrass plant response rating (bamyardgrass; [7]): 0
Plant response rating, Barnyardgrass (bamyardgrass; Rate 250 g/ha, Postemergence (flood test species), scale of 0 to 10 where 0 is no effect and 10 is complete control): 9
Barnyardgrass plant response rating (bamyardgrass; [8]): 9
Barnyardgrass plant response rating (bamyardgrass; [9]): 9
Plant response rating, Redroot pigweed (pigweed; [1]): 3
Plant response rating, Redroot pigweed (pigweed; [2]): 7
Redroot pigweed plant response rating (0 to 10 scale) (pigweed; Preemergence, Rate 125 g/ha): 9
Redroot pigweed plant response rating (pigweed; Preemergence, Rate 250 g/ha): 10
Redroot pigweed plant response rating (pigweed; Preemergence, Rate 500 g/ha): 10
Redroot pigweed plant response rating (pigweed; Rate 62 g/ha, Postemergence): 3
Plant response rating, Redroot pigweed (pigweed; [3]): 6
Plant response rating, Rice (rice; [4]): 0
Rice plant response rating (rice; [5]): 0
Plant response rating, Rice (0 to 10 scale, 0 is no effect, 10 is complete control) (rice; [6]): 0
Rice plant response rating (rice; [7]): 0
Rice plant response rating (rice; [8]): 0
Plant response rating, Rice (rice; Rate 500 g/ha, listed under Postemergence (flood test species), scale 0 to 10, 0 no effect, 10 complete control): 0
Rice plant response rating (rice; [9]): 8
Plant response rating, Soybean (soybean; [1]): 4
Plant response rating, Soybean (soybean; [2]): 0
Soybean plant response rating (0 to 10 scale) (soybean; Preemergence, Rate 125 g/ha): 0
Soybean plant response rating (soybean; Preemergence, Rate 250 g/ha): 0
Soybean plant response rating (soybean; Preemergence, Rate 500 g/ha): 1
Soybean plant response rating (soybean; Rate 62 g/ha, Postemergence): 4
Plant response rating, Soybean (soybean; [3]): 7
Plant response rating, Wild oats (wild oat; [1]): 3
Plant response rating, Wild oats (wild oat; [2]): 4
Wild oats plant response rating (0 to 10 scale) (wild oat; Preemergence, Rate 125 g/ha): 5
Wild oats plant response rating (wild oat; Preemergence, Rate 250 g/ha): 9
Wild oats plant response rating (wild oat; Preemergence, Rate 500 g/ha): 10
Wild oats plant response rating (wild oat; Rate 62 g/ha, Postemergence): 0
Plant response rating, Wild oats (wild oat; [3]): 7
Plant response rating, Sugarbeets (sugar beet; [1]): 0
Plant response rating, Sugarbeets (sugar beet; [2]): 0
Sugarbeets plant response rating (0 to 10 scale) (sugar beet; Preemergence, Rate 125 g/ha): 1
Sugarbeets plant response rating (sugar beet; Preemergence, Rate 250 g/ha): 3
Sugarbeets plant response rating (sugar beet; Preemergence, Rate 500 g/ha): 3
Sugarbeets plant response rating (sugar beet; Rate 62 g/ha, Postemergence): 0
Plant response rating, Sugarbeets (sugar beet; [3]): 4
Plant response rating, S. Flatsedge (smallflower flatsedge; [4]): 0
S. Flatsedge plant response rating (smallflower flatsedge; [5]): 0
Plant response rating, S. Flatsedge (0 to 10 scale, 0 is no effect, 10 is complete control) (smallflower flatsedge; [6]): 0
S. Flatsedge plant response rating (smallflower flatsedge; [7]): 6
S. Flatsedge plant response rating (smallflower flatsedge; [8]): 8
S. Flatsedge plant response rating (smallflower flatsedge; [9]): 8
Plant response rating, Crabgrass (crabgrass; [1]): 0
Plant response rating, Crabgrass (crabgrass; [2]): 9
Crabgrass plant response rating (0 to 10 scale) (crabgrass; Preemergence, Rate 125 g/ha): 10
Crabgrass plant response rating (crabgrass; Preemergence, Rate 250 g/ha): 10
Crabgrass plant response rating (crabgrass; Preemergence, Rate 500 g/ha): 10
Crabgrass plant response rating (crabgrass; Rate 62 g/ha, Postemergence): 0
Plant response rating, Crabgrass (crabgrass; [3]): 7
Plant response rating, Giant foxtail (giant foxtail; [1]): 8
Plant response rating, Giant foxtail (giant foxtail; [2]): 10
Giant foxtail plant response rating (0 to 10 scale) (giant foxtail; Preemergence, Rate 125 g/ha): 10
Giant foxtail plant response rating (giant foxtail; Preemergence, Rate 250 g/ha): 10
Giant foxtail plant response rating (giant foxtail; Preemergence, Rate 500 g/ha): 10
Giant foxtail plant response rating (giant foxtail; Rate 62 g/ha, Postemergence): 3
Plant response rating, Giant foxtail (giant foxtail; [3]): 8
